Measurements: patent US8785653B2, “(3-aryl-1H-1,2,4-triazol-5-yl)-linked heterocycle derivatives” (H. Lundbeck A/S, priority 2009, dated 2014)

Columns and labels:
[1] = test system: rats; settings: cited from earlier work
[2] = test system: rats; settings: cited from earlier work; remark: listed apart in the source
[3] = test system: rats; settings: cited from earlier work; remark: listed apart in the source
[4] = molecular target: T1, PDE10A enzyme (Homo sapiens, UniProt Q9Y233); experiment: PDE10A inhibition assay; type: biochemical; settings: 3H-labelled cAMP substrate 5 nM, SPA beads, one hr at room temperature
T1 construct: made in house; host or cells: E. coli BL21(DE3)
T1 sequence (Q9Y233 716-1055): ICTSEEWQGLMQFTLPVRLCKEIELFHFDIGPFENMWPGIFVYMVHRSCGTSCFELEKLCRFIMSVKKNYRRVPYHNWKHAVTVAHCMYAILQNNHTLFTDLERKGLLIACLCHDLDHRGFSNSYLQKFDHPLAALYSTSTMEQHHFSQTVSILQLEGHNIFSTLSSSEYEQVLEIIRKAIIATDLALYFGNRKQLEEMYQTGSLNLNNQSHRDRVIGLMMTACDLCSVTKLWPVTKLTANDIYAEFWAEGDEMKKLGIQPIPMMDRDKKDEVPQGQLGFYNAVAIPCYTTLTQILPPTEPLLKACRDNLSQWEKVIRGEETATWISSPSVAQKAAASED
Method: Active PDE10A enzyme is prepared in a number of ways for use in PDE assays (Loughney, K. et al. Gene 1999, 234, 109-117; Fujishige, K. et al. Eur J Biochem. 1999, 266, 1118-1127 and Soderling, S. et al. Proc. Natl. Acad. Sci. 1999, 96, 7071-7076). PDE10A can be expressed as full-length proteins or as truncated proteins, as long as they express the catalytic domain. PDE10A can be prepared in different cell types, for example insect cells or E. coli. An example of a method to obtain catalytically active PDE10A is as follows: The catalytic domain of human PDE10A (amino acids 440-779 from the sequence with accession number NP 006652) is amplified from total human brain total RNA by standard RT-PCR and is cloned into the BamH1 and Xho1 sites of the pET28a vector (Novagen). Expression in coil is performed according to standard protocols. Briefly, the expression plasmids are transformed into the BL21(DE3) E. coli strain, and 50 mL cultures inoculated with the cells allowed to grow to an OD600 of 0.4-0.6 before protein expression is induced with 0.5mM IPTG. Following induction, the cells are incubated overnight at room temperature, after which the cells are collected by centrifugation. Cells expressing PDE10A are resuspended in 12 mL (50 mM TRIS-HCl-pH8.0, 1 mM MgCl2 and protease inhibitors). The cells are lysed by sonication, and after all cells are lysed, TritonX100 is added according to Novagen protocols.
A PDE10A assay may for example, be performed as follows: The assay is performed in 60 uL samples containing a fixed amount of the relevant PDE enzyme (sufficient to convert 20-25% of the cyclic nucleotide substrate), a buffer (50 mM HEPES7.6; 10 mM MgCl2; 0.02% Tween20), 0.1 mg/mI BSA, 225 pCi of ^3H-labelled cyclic nucleotide substrate, tritium labeled cAMP to a final concentration of 5 nM and varying amounts of inhibitors. Reactions are initiated by addition of the cyclic nucleotide substrate, and reactions are allowed to proceed for one hr at room temperature before being terminated through mixing with 15 uL 8 mg/mL yttrium silicate SPA beads (Amersham). The beads are allowed to settle for one hr in the dark before the plates are counted in a Wallac 1450 Microbeta counter. The measured signal can be converted to activity relative to an uninhibited control (100%) and IC50 values can be calculated using the XIfit extension to EXCEL.

| Compound | IC50 [4] [nM] | also measured |
| --- | --- | --- |
| COc1ccc(Cc2nccc3cc(OC)c(OC)cc23)cc1OC [Papaverine, papaverine] |  | reduction of amphetamine induced hyperactivity [1]: insignificant; catalepsy on its own ([2]; papaverine alone): did not cause catalepsy; cataleptic effect of the D2 receptor antagonist haloperidol ([2]; together with haloperidol): potentiated; hyperactivity induced by PCP [3]: reduced hyperactivity |
| CCCn1nc(-c2ccccc2)nc1CCc1nc2c(CC)ccc(C)n2n1 [8-Ethyl-5-methyl-2-[2-(5-phenyl-2-propyl-2H-[1,2,4]triazol-3-yl)-ethyl]-[1,2,4]triazolo[1,5-a]pyridine] | 10 | melting point: 141 to 143 °C |
| Cc1ncc(C)n2nc(CCc3nc(-c4cncs4)nn3C)nc12 [5,8-Dimethyl-2-[2-(2-methyl-5-thiazol-5-yl-2H-[1,2,4]triazol-3-yl)-ethyl]-[1,2,4]triazolo[1,5-a]pyrazine] | 26 |  |
| Cc1ncc(C)n2nc(CCc3nc(-c4ccco4)nn3C)nc12 [2-[2-(5-Furan-2-yl-2-methyl-2H-[1,2,4]triazol-3-yl)-ethyl]-5,8-dimethyl-[1,2,4]triazolo[1,5-a]pyrazine] | 4.6 |  |
| Cc1ncc(C)n2nc(/C=C/c3nc(-c4ccco4)n(C)n3)nc12 [2-[(E)-2-(5-Furan-2-yl-1-methyl-1H-[1,2,4]triazol-3-yl)-vinyl]-5,8-dimethyl-[1,2,4]triazolo[1,5-a]pyrazine] | 60 |  |
| Cc1csc(-c2nc(CCc3nc4c(C)ncc(C)n4n3)n(C)n2)n1 [5,8-Dimethyl-2-{2-[2-methyl-5-(4-methyl-thiazol-2-yl)-2H-[1,2,4]triazol-3-yl]-ethyl}-[1,2,4]triazolo[1,5-a]pyrazine] | 76 |  |
| COc1ccc(C)n2nc(CCc3nc(-c4ccccc4)nn3C)nc12 [8-Methoxy-5-methyl-2-[2-(2-methyl-5-phenyl-2H-[1,2,4]triazol-3-yl)-ethyl]-[1,2,4]triazolo[1,5-a]pyridine] | 25 |  |
| Cc1cccn2nc(CCc3nc(-c4ccccc4)nn3C)nc12 [8-Methyl-2-[2-(2-methyl-5-phenyl-2H-[1,2,4]triazol-3-yl)-ethyl]-[1,2,4]triazolo[1,5-a]pyridine] | 170 |  |
| Cc1ncc(C)n2nc(CCc3nc(-c4ccccc4)nn3CCC#N)nc12 [3-{5-[2-(5,8-Dimethyl-[1,2,4]triazolo[1,5-a]pyrazin-2-yl)-ethyl]-3-phenyl-[1,2,4]triazol-1-yl}-propionitrile] | 25 |  |
| COCCn1nc(-c2ccccc2)nc1CCc1nc2c(C)ncc(C)n2n1 [2-{2-[2-(2-Methoxy-ethyl)-5-phenyl-2H-[1,2,4]triazol-3-yl]-ethyl}-5,8-dimethyl-[1,2,4]triazolo[1,5-a]pyrazine] | 14 |  |
| Cc1ncc(C)n2nc(CCc3nc(-c4cccs4)nn3C)nc12 [5,8-Dimethyl-2-[2-(2-methyl-5-thiophen-2-yl-2H-[1,2,4]triazol-3-yl)-etnyl]-[1,2,4]triazolo[1,5-a]pyrazine] | 5.6 |  |
| CCCn1nc(-c2ccccc2)nc1CCc1nc2c(OC)ccc(C)n2n1 [8-Methoxy-5-methyl-2-[2-(5-phenyl-2-propyl-2H-[1,2,4]triazol-3-yl)-ethyl]-[1,2,4]triazolo[1,5-a]pyridine] | 37 |  |
| COc1ccc(C)n2nc(CCc3nc(-c4ccccc4)nn3CCC#N)nc12 [3-{5-[2-(8-Methoxy-5-methyl-[1,2,4]triazolo[1,5-a]pyridin-2-yl)-ethyl]-3-phenyl-[1,2,4]triazol-1-yl}-propionitrile] | 45 |  |
